Consider 1 compound from patent publication US20030219712A1, “Addition of glycolysis inhibitor to a pathogen reduction and storage solution” (priority 2002, published 2003).

Type in all cases: cell-based
The subject of experiment [1] is pathogen reduced platelets. The experiment is described as follows: Glucose consumption of pathogen reduced platelets over time. The note with it: 10 mM 2-deoxy-D-glucose; riboflavin, 7 J/cm^2 320 nm light; vs platelets containing no 2-deoxy-D-glucose (FIG. 2). The text has this:
(§1) The following figures graph the quality of pathogen reduced platelets over a five day storage period. Platelets were separated from whole blood and collected using a blood collection device such as the COBE Spectra™ or TRIMA® apheresis systems available from Gambro BCT Inc., Lakewood, Colo., USA. However, it should be noted that any device known in the art for separating blood into components may be used to collect platelets without departing from the spirit and scope of the present invention.
(§2) Collected platelets were suspended in a volume of 278 mL of fluid containing […] riboflavin and either with or without a glycolytic inhibitor. 2-deoxy-D-glucose is one example of a glycolytic inhibitor which may be used in the present invention. The platelets were irradiated in a Sengewald bag (available from Sengewald Verpackungen GmbH & Co. KG) (however any bag known in the art may be used) at 7 J/cm^2 with a 320 nm broad band eximer light.

Experiment [2] has as its system pathogen reduced platelets. In words: pH over time of a solution of pathogen reduced platelets. The note with it: 10 mM 2-deoxy-D-glucose; five day storage; platelets without it show rapid drop in pH (FIG. 3).
Description: as §1, §2
As shown, 10 mM 2-deoxy-D-glucose appears to maintain the pH of the platelets at approximately pH 7.40. Platelets without 2-deoxy-D-glucose experience a rapid drop in pH. Such results are expected because lactic acid is not produced at high rates if the glycolysis pathway is inhibited, and consequently, the pH of the solution remains at a relatively constant level.

Experiment [3] deals with pathogen reduced platelets. The experiment is described as follows: Lactate production by pathogen reduced platelets over five day storage. The note with it: 10 mM 2-deoxy-D-glucose; five days in storage; riboflavin, 7 J/cm^2 320 nm light; vs platelets without 2-deoxy-D-glucose (FIG. 1).
Description: as §1, §2

Experiment [4] deals with pathogen treated platelets. In words: GMP-140 expression on the surface of pathogen treated platelets (platelet activation) over five day storage. The note with it: solutions containing 2-deoxy-D-glucose, vs solutions without glycolytic inhibitors (FIG. 4).
Description: as §1, §2
FIG. 4 is a graph showing GMP-140 expression on the surface of pathogen treated platelets over a five day storage period. GMP-140 is a marker which appears on the surface of platelets which are activated. When transfused into a recipient, platelets which are activated during storage have a higher percentage of being quickly removed from the recipient's circulatory system than non-activated platelets.

As for `O=CC[C@@H](O)[C@H](O)[C@H](O)CO` [2-deoxy-D-glucose], in experiment [1], the glucose consumption entry is listed as “slower rate”. The “pH of the platelets maintained during storage” value in experiment [2] is recorded as around 7.40. Besides, in experiment [3], the “production of lactic acid” value is “marked decrease”. The “percentage of GMP-140 expression” value in experiment [4] is “lower percentage”.
